Results from the supplement of paper PMC11208160.

Assay: recombinant UMI read abundance after kanamycin selection (control-corrected) (log10(CPM+1)); higher = more efficient recombination; extreme values may be limits of the assay; sequences stand for … in AGTGCAGAGAAAATCGGCCAGTTTTCTCTGCCTGCAGTCCGCATGCCGTGGGACCCCTTGGGTTCTAACCTGTTGCCTAGATTTATGCAGCGGACTGCCTTTCTCCCAAAGTGATAAACCGG…AGGTTGGTTTCACT; site = the 11-nt donor
Method in brief: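 Two replicates each of selected and unselected plating were used in this pooled Escherichia coli screen of donor and donor-binding-loop pairs for the IS621 bridge recombinase. Selection was with IPTG (0.07 mM) and kanamycin. Counts of recombinant UMIs, amplified across the donor–target junction, were converted to CPM, averaged, scaled by control-derived factors and reported as log10(CPM+1).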
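Also: IS621 bridge recombinase in Escherichia coli cells against a fixed T5 target plasmid.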

Sequence	recombinant UMI read abundance (log10)
GTTCCCTCATGGACCGGTTTTCCCGGTAATCCGTATTTGTA (site GTTCCCTCTTA)	2.5
GTTCCGACATGGACCGGTTTTCCCGGTAATCCGTATTTGTG (site GTTCCGACTCA)	0.0473
GTTCCTTCATGGACCGGTTTTCCCGGTAATCCGTATTTGAC (site GTTCCTTCTGT)	0.671
GTTCGAACATGGACCGGTTTTCCCGGTAATCCGTATTTGGT (site GTTCGAACTAC)	0.225
GTTCGAGCATGGACCGGTTTTCCCGGTAATCCGTATTTGCG (site GTTCGAGCTAG)	0
GTTCGAGCATGGACCGGTTTTCCCGGTAATCCGTATTTGCG (site GTTCGAGCTCG)	1.39
GTTCGAGCATGGACCGGTTTTCCCGGTAATCCGTATTTGCG (site GTTCGAGCTGG)	0.838
GTTCGAGCATGGACCGGTTTTCCCGGTAATCCGTATTTGCG (site GTTCGAGCTTG)	1.23
GTTCGAGCATGGACCGGTTTTCCCGGTAATCCGTATTTGTA (site GTTCGAGCTTA)	1.9
GTTCGAGCATGGACCGGTTTTCCCGGTAATCCGTATTTGTA (site GTTCGAGCTTC)	0.014
GTTCGAGCATGGACCGGTTTTCCCGGTAATCCGTATTTGTA (site GTTCGAGCTTG)	0.543
GTTCGAGCATGGACCGGTTTTCCCGGTAATCCGTATTTGTA (site GTTCGAGCTTT)	0.569
GTTCGGACATGGACCGGTTTTCCCGGTAATCCGTATTTGTG (site GTTCGGACTCA)	0.706
GTTCTACCATGGACCGGTTTTCCCGGTAATCCGTATTTGCC (site GTTCTACCTGG)	0
GTTCTAGCATGGACCGGTTTTCCCGGTAATCCGTATTTGCA (site GTTCAAGCTTG)	0
GTTCTAGCATGGACCGGTTTTCCCGGTAATCCGTATTTGCA (site GTTCCAGCTTG)	0.0113
GTTCTAGCATGGACCGGTTTTCCCGGTAATCCGTATTTGCA (site GTTCGAGCTTG)	0
GTTCTAGCATGGACCGGTTTTCCCGGTAATCCGTATTTGCA (site GTTCTAGCTTG)	0.902
GTTCTCTCATGGACCGGTTTTCCCGGTAATCCGTATTTGTA (site ATTCTCTCTTA)	0.848
GTTCTCTCATGGACCGGTTTTCCCGGTAATCCGTATTTGTA (site CTTCTCTCTTA)	0.989
GTTCTCTCATGGACCGGTTTTCCCGGTAATCCGTATTTGTA (site GTTCTCTCTTA)	1.83
GTTCTCTCATGGACCGGTTTTCCCGGTAATCCGTATTTGTA (site TTTCTCTCTTA)	0.822
GTTGAAGCATGGACCGGTTTTCCCGGTAATCCGTATTTGAG (site GTTGAAGCTCT)	1.61

Sequence	recombinant UMI read abundance (log10)
GTTGAGTCATGGACCGGTTTTCCCGGTAATCCGTATTTGAC (site GTTGAGTCTGT)	2.71
GTTGGCGCATGGACCGGTTTTCCCGGTAATCCGTATTTGTG (site GTTGGCGCTCA)	0.74
GTTGGGCCATGGACCGGTTTTCCCGGTAATCCGTATTTGAT (site GTTGGGCCTAT)	0.00591
GTTGTTCCATGGACCGGTTTTCCCGGTAATCCGTATTTGGT (site ATTGTTCCTAC)	0.0121
GTTGTTCCATGGACCGGTTTTCCCGGTAATCCGTATTTGGT (site CTTGTTCCTAC)	0.00343
GTTGTTCCATGGACCGGTTTTCCCGGTAATCCGTATTTGGT (site GATGTTCCTAC)	0.0185
GTTGTTCCATGGACCGGTTTTCCCGGTAATCCGTATTTGGT (site GCTGTTCCTAC)	0.00506
GTTGTTCCATGGACCGGTTTTCCCGGTAATCCGTATTTGGT (site GGTGTTCCTAC)	0.0704
GTTGTTCCATGGACCGGTTTTCCCGGTAATCCGTATTTGGT (site GTAGTTCCTAC)	0.00238
GTTGTTCCATGGACCGGTTTTCCCGGTAATCCGTATTTGGT (site GTCGTTCCTAC)	0.005
GTTGTTCCATGGACCGGTTTTCCCGGTAATCCGTATTTGGT (site GTGGTTCCTAC)	0.508
GTTGTTCCATGGACCGGTTTTCCCGGTAATCCGTATTTGGT (site GTTATTCCTAC)	0.00427
GTTGTTCCATGGACCGGTTTTCCCGGTAATCCGTATTTGGT (site GTTCTTCCTAC)	0.0166
GTTGTTCCATGGACCGGTTTTCCCGGTAATCCGTATTTGGT (site GTTGATCCTAC)	0.00419
GTTGTTCCATGGACCGGTTTTCCCGGTAATCCGTATTTGGT (site GTTGCTCCTAC)	0.00968
GTTGTTCCATGGACCGGTTTTCCCGGTAATCCGTATTTGGT (site GTTGGTCCTAC)	0.00325
GTTGTTCCATGGACCGGTTTTCCCGGTAATCCGTATTTGGT (site GTTGTACCTAC)	0.00624
GTTGTTCCATGGACCGGTTTTCCCGGTAATCCGTATTTGGT (site GTTGTCCCTAC)	0.00355
GTTGTTCCATGGACCGGTTTTCCCGGTAATCCGTATTTGGT (site GTTGTGCCTAC)	0.03
GTTGTTCCATGGACCGGTTTTCCCGGTAATCCGTATTTGGT (site GTTGTTACTAC)	0.00857
GTTGTTCCATGGACCGGTTTTCCCGGTAATCCGTATTTGGT (site GTTGTTCCTAA)	0.00913
GTTGTTCCATGGACCGGTTTTCCCGGTAATCCGTATTTGGT (site GTTGTTCCTAC)	0.00461
GTTGTTCCATGGACCGGTTTTCCCGGTAATCCGTATTTGGT (site GTTGTTCCTAG)	0

Sequence	recombinant UMI read abundance (log10)
GTTGTTCCATGGACCGGTTTTCCCGGTAATCCGTATTTGGT (site GTTGTTCCTAT)	0.00563
GTTGTTCCATGGACCGGTTTTCCCGGTAATCCGTATTTGGT (site GTTGTTCCTCC)	0.0221
GTTGTTCCATGGACCGGTTTTCCCGGTAATCCGTATTTGGT (site GTTGTTCCTGC)	0.388
GTTGTTCCATGGACCGGTTTTCCCGGTAATCCGTATTTGGT (site GTTGTTCCTTC)	0.00361
GTTGTTCCATGGACCGGTTTTCCCGGTAATCCGTATTTGGT (site GTTGTTGCTAC)	0.0845
GTTGTTCCATGGACCGGTTTTCCCGGTAATCCGTATTTGGT (site GTTGTTTCTAC)	0
GTTGTTCCATGGACCGGTTTTCCCGGTAATCCGTATTTGGT (site GTTTTTCCTAC)	0
GTTGTTCCATGGACCGGTTTTCCCGGTAATCCGTATTTGGT (site TTTGTTCCTAC)	0.0162
GTTGTTCCATGGACCGGTTTTCCCGGTAATCCGTATTTGTT (site GTTGTTCCTAA)	0.42
GTTGTTCCATGGACCGGTTTTCCCGGTAATCCGTATTTGTT (site GTTGTTCCTAC)	0
GTTGTTCCATGGACCGGTTTTCCCGGTAATCCGTATTTGTT (site GTTGTTCCTAG)	0
GTTGTTCCATGGACCGGTTTTCCCGGTAATCCGTATTTGTT (site GTTGTTCCTAT)	0
GTTTCAACATGGACCGGTTTTCCCGGTAATCCGTATTTGAC (site GTTTCAACTGT)	0.631
GTTTCAGCATGGACCGGTTTTCCCGGTAATCCGTATTTGTG (site GTTTCAGCTCA)	0.537
GTTTCTGCATGGACCGGTTTTCCCGGTAATCCGTATTTGAG (site GTTTCTGCTCT)	0.45
TAAAGGCCATGGACCGGTTTTCCCGGTAATCCGTATTTGTA (site TAAAGACCTTA)	0.00739
TAAAGGCCATGGACCGGTTTTCCCGGTAATCCGTATTTGTA (site TAAAGCCCTTA)	0.00872
TAAAGGCCATGGACCGGTTTTCCCGGTAATCCGTATTTGTA (site TAAAGGCCTTA)	0.544
TAAAGGCCATGGACCGGTTTTCCCGGTAATCCGTATTTGTA (site TAAAGTCCTTA)	0.12
TAACAACCATGGACCGGTTTTCCCGGTAATCCGTATTTGTT (site TAACAACCTAA)	0.06
TAACGAACATGGACCGGTTTTCCCGGTAATCCGTATTTGCG (site TAACGAACTCG)	1.63
TAACGAGCATGGACCGGTTTTCCCGGTAATCCGTATTTGGG (site TAAAGAGCTCC)	0.00891
